Legend:
[1] = biological target: T1, P450 1B1 (Homo sapiens, UniProt Q16678); experiment: EROD assay with recombinant enzyme, compound at […]; type: biochemical
T1 sequence (Q16678 1-543): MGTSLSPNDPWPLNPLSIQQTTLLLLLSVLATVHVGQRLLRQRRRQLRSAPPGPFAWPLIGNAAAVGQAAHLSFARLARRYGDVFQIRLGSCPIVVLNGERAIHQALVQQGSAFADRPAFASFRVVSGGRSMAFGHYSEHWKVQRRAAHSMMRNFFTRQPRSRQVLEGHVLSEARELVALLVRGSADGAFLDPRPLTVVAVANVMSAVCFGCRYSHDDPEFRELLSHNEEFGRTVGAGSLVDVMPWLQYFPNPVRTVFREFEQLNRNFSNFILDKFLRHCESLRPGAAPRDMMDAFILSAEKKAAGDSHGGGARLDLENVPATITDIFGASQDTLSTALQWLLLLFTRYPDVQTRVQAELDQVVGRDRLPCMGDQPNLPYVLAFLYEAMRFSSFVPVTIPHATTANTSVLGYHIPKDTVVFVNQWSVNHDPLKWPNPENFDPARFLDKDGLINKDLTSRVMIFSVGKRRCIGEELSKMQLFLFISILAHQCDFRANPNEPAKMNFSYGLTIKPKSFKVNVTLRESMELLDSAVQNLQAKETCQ
T1 sequence (P16435 2-677 partner): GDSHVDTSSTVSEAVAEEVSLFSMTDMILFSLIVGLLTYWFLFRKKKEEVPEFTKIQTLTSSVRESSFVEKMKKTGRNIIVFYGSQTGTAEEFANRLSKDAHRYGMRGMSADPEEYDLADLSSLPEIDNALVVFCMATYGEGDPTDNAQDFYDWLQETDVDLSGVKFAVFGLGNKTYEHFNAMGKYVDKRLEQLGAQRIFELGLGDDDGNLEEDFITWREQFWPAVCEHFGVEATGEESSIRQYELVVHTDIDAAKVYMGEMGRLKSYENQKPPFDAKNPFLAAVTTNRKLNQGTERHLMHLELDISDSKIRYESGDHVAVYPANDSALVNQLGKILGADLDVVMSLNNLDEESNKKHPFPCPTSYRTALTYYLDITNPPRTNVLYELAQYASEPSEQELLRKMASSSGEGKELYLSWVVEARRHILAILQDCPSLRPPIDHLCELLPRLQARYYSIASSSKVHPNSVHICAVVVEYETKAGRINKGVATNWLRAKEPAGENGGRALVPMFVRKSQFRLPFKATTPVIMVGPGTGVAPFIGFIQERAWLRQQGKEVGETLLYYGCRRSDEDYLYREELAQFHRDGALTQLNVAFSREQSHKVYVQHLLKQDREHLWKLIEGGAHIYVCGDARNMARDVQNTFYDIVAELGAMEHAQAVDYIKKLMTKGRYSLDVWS

[2] = biological target: T2, P450 1A1 (Homo sapiens, UniProt P04798); experiment: EROD assay with recombinant enzyme, compound at […]; type: biochemical
T2 sequence (P04798 1-512): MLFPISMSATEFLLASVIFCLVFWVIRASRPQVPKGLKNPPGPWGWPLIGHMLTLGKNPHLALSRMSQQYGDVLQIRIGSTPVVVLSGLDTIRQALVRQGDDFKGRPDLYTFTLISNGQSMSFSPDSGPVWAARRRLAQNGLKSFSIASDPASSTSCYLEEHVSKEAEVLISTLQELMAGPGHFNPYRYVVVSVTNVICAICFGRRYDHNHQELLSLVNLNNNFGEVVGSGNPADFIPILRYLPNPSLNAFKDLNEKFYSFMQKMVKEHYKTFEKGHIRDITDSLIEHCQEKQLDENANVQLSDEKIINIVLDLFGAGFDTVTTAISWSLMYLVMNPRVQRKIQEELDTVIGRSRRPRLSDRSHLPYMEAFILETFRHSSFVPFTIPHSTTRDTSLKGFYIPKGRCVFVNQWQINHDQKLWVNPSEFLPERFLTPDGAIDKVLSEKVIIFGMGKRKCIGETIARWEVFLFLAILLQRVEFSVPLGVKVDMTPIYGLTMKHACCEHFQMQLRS
T2 sequence (P16435 2-677 partner): T1 sequence (P16435 2-677 partner)

| Compound | EROD assay with recombinant enzyme, compound at 1 and 10 uM [1] | EROD assay with recombinant enzyme, compound at 1 and 10 uM [2] |
| --- | --- | --- |
| C=CC(C)(C)c1cc(/C=C/C(=O)c2ccc(O)cc2)c(OC)cc1O [LicA, licochalcone A] | LicA and LigC led to a significant inhibition of recombinant P450 1A1/1B1 enzyme activity (Figure 7B, C) | LicA and LigC led to a significant inhibition of recombinant P450 1A1/1B1 enzyme activity (Figure 7B, C) |
| O=C(/C=C/c1ccc(O)cc1)c1ccc(O)cc1O [LigC, isoliquiritigenin] | LicA and LigC led to a significant inhibition of recombinant P450 1A1/1B1 enzyme activity (Figure 7B, C) | LicA and LigC led to a significant inhibition of recombinant P450 1A1/1B1 enzyme activity (Figure 7B, C) |

Source: PMC4664064 (Chemical research in toxicology, 2015)
